According to patent US20210164015A1, “ANTIMICROBIAL SUSCEPTIBILITY TESTING USING MICRODROPLETS” (Becton, Dickinson and Company, priority 2018, published 2021):

Test system: E. coli
Assay: microdroplet antibiotic susceptibility testing (AST) using a fluorescent viability indicator
Assay type: cell-based
Conditions: for fluorescence intensity of microdroplets (fluorescent viability indicator): E. coli encapsulated in microdroplets
Excerpt: FIGS. 3A-3D depict results of an embodiment of microdroplet antibiotic susceptibility testing using a fluorescent viability indicator. FIG. 3A depicts change in fluorescent intensity in microdroplets at 1-hour, 2-hour, and 3-hour time points in samples without antibiotic (condition A) and samples with antibiotic at two times MIC (condition B). FIG. 3B depicts micrographs of microdroplets under the conditions of FIG. 3A.
Some embodiments provided herein relate to a first mode for determining microbial viability. A first mode for determining microbial viability is schematically depicted in FIG. 1. As described herein, a first mode for determining microbial viability includes providing a sample having microbes therein, dividing the sample into a number of portions, preparing microdroplets encapsulating microbes from the sample, either before or after the portions are formed (FIG. 1 depicts forming portions first), contacting each portion to a different concentration of an antimicrobial of interest either before or after preparing the microdroplets (FIG. 1 depicts adding an antibiotic prior to forming microdroplets), and measuring viability of the microbes by measuring a signal of microbial viability. Measuring a signal of microbial viability may be performed by obtaining a measure of microbial viability from a discrete subset of microdroplets, or a plurality of discrete subsets of microdroplets, from a population of microdroplets. The results for the measurements from discrete subsets of microdroplets at a first time point can then be combined to generate a result for the portion of the sample from which the microdroplet(s) were taken at this first time point. This process can be repeated at additional time points to determine microbial viability in that portion over time, thereby determining the susceptibility of the microbe to a given concentration of antimicrobial. Typically, it is not necessary to measure the exact same population of microdroplets at the first and subsequent time points, as long as the population of microdroplets measured at each time point are representative of the portion of the sample from which they are taken. The results from the various portions exposed to different concentrations of antimicrobial can then be used to determine the susceptibility of the microbe to the antimicrobial. […] Conversely, an increase in the measure of microbial viability over time indicates growth of microbes in the concentration of antimicrobial present in the portion of the sample from which the measurements were made. A minimum inhibitory concentration can be determined utilizing the results of antimicrobial susceptibility and/or microbe growth from the several portions of the sample exposed to different concentrations of antimicrobial. […]

SMILES: CC1(C)S[C@@H]2[C@H](NC(=O)[C@H](N)c3ccccc3)C(=O)N2[C@H]1C(=O)O [ampicillin]
- fluorescence intensity of microdroplets (fluorescent viability indicator) (antibiotic at 2×MIC (Condition B), 1 hour incubation (t1)): remained low
- fluorescence intensity of microdroplets (fluorescent viability indicator) (antibiotic at 2×MIC (Condition B), 2 hours and 3 hours incubation (t2, t3)): remained low
- E. coli growth in microdroplets (antibiotic at 2×MIC (Condition B), 2 hours and 3 hours, inferred from fluorescence intensity): no E. coli growth
- presence of E. coli in micrographs of microdroplets (FIG. 3D) (microdroplets exposed to antibiotic at 2×MIC (Condition B)): no E. coli is present
